# Reference: US20060269938A1, “Polynucleotides encoding insect plasma membrane ca2+ ATPase and uses thereof” (priority 2005, published 2006)
# Experiments:
# PMCA = assay: pyruvate kinase/lactate dehydrogenase-coupled assay that measures ADP formation; type: biochemical, Heliothis virescens; conditions: fit to simple hyperbolic equation; decrease in absorbance at 340 nm; PMCA 0.20 mg/mL; FIG. 3; read-out: K1/2 for ATP, PMCA reaction rate
# Procedure: The PMCA reaction rate is dependent on the ATP concentration. The K1/2 for ATP was measured using a pyruvate kinase/lactate dehydrogenase-coupled assay that measures ADP formation. The final concentrations of PMCA and ATP were […]. The rates of decrease in absorbance at 340 nm were measured for each concentration of ATP. The line gives the fit to a simple hyperbolic equation with K1/2=0.013 mM and amplitude=0.022 OD/min. Vmax =50.0 nmol.min^−1.mg^−1. was obtained for PMCA activity under the conditions described.
# [1] = test system: recombinant Heliothis virescens PMCA; assay: PMCA activity assay, luciferase-luciferin luminescence measurement of remaining ATP; type: biochemical
# Procedure: The assay for PMCA is based on the use of the luciferase-luciferin luminescence reaction to measure ATP. PMCA hydrolyzes ATP in the presence of Ca^2+and the ATP that remains is measured. Membrane vesicles from Sf9 cells expressing recombinant Heliothis virescens PMCA are provided with the assay.
# The assay protocol is designed for a 384-well microtiter plate format, but other multi-well formats or other formats may also be used. The reaction is started by the addition of the PMCA enzyme. The negative control reactions contain eosin, an inhibitor of PMCA. Reaction mixtures are incubated at room temperature (22-24° C.) for 60 minutes, followed by the addition of the luciferase-luciferin mix. The plates are immediately read for luminescence.
# The luciferin-luciferase readout measures the concentration of ATP in reaction mixtures. Light emission by the luciferase is proportional to the concentration of ATP when its value is less than 0.010 mM. PMCA consumes ATP in a Ca^2+-dependent hydrolysis reaction. […]
# A volume of 0.005 mL of the HI solution increasing concentrations of eosin was placed in the wells of a 384-well microtiter plate, and a volume of 0.020 mL of the H2 solution was added. […] A volume of 0.035 mL of the H4 reaction mixture was then added to each well of the plate and the luminescence was measured. The decrease in relative light units (RLU) in reaction time t=60 minutes was measured. […]
structure (smiles),measurement,setting,value
Nc1ncnc2c1ncn2[C@@H]1O[C@H](COP(=O)(O)OP(=O)(O)OP(=O)(O)O)[C@@H](O)[C@H]1O [ATP],Km,PMCA,13 µM
[Ca+2] [Ca^2+],"K1/2 for Ca2+, PMCA reaction rate","[1]; fit to simple hyperbolic equation, rates of decrease in RLU, ATP 0.010 mM, PMCA 0.010 mg/mL, FIG. 4",1.5 µM
"O=C1OC2(c3ccccc31)c1cc(Br)c(O)c(Br)c1Oc1c2cc(Br)c(O)c1Br [eosin, reference compound]",IC50,"[1]; membrane vesicles from Sf9 cells, room temperature (22-24° C.), 60 minutes, FIG. 5, read-out: IC50 of inhibition of PMCA activity (rates of ATP consumption)",12 nM
